Results: the NIST ThermoML archive (doi:10.1016/j.fluid.2018.10.006)
Several values for one entry are separate records, joined by “and”; a condition that tells them apart may be missing. Equal values may be shown once. Numbers after ± are expanded uncertainties.

Settings: 513.09 K, Fluid (supercritical or subcritical phases), Coaxial cylinder method

Which thermal conductivity (3280 kPa) does the source give for `CCCCCC` [hexane] here?
Its thermal conductivity is 0.07438 ± 0.0035 W/m/K.

And the thermal conductivity (3282 kPa)?
The thermal conductivity was 0.07445 ± 0.0035 W/m/K.

And the thermal conductivity (3284 kPa)?
The thermal conductivity was 0.07451 ± 0.0035 W/m/K.

And the thermal conductivity (3287 kPa)?
Its thermal conductivity is 0.07452 ± 0.0035 W/m/K.

And the thermal conductivity (3288 kPa)?
Its thermal conductivity is 0.07459 ± 0.0035 W/m/K.

What about the thermal conductivity (3290 kPa) of the same compound?
Its thermal conductivity is 0.07463 ± 0.0035 W/m/K.

What about the thermal conductivity (3292 kPa) of the same compound?
Its thermal conductivity is 0.07463 ± 0.0035 W/m/K.

And the thermal conductivity (3295 kPa)?
The thermal conductivity was 0.07469 ± 0.0035 W/m/K.

What about the thermal conductivity (3298 kPa) of the same compound?
Its thermal conductivity is 0.07463 ± 0.0035 W/m/K.

What about the thermal conductivity (3303 kPa) of the same compound?
Its thermal conductivity is 0.07463 ± 0.0035 W/m/K.

And the thermal conductivity (3306 kPa)?
The thermal conductivity was 0.07437 ± 0.0035 W/m/K.

And the thermal conductivity (3310 kPa)?
The thermal conductivity was 0.07332 ± 0.0034 W/m/K.

And the thermal conductivity (3312 kPa)?
The thermal conductivity was 0.07332 ± 0.0034 W/m/K.

And the thermal conductivity (3313 kPa)?
Its thermal conductivity is 0.07228 ± 0.0034 W/m/K.

And the thermal conductivity (3318 kPa)?
Its thermal conductivity is 0.07228 ± 0.0034 W/m/K.

And the thermal conductivity (3319 kPa)?
Its thermal conductivity is 0.07228 ± 0.0034 W/m/K.

What about the thermal conductivity (3322 kPa) of the same compound?
Its thermal conductivity is 0.07228 ± 0.0034 W/m/K.

What about the thermal conductivity (3326 kPa) of the same compound?
The thermal conductivity was 0.07228 ± 0.0034 W/m/K.

And the thermal conductivity (3330 kPa)?
The thermal conductivity was 0.07228 ± 0.0034 W/m/K.

And the thermal conductivity (3331 kPa)?
The thermal conductivity was 0.07228 ± 0.0034 W/m/K.

And the thermal conductivity (3332 kPa)?
The thermal conductivity was 0.07228 ± 0.0034 W/m/K.

What about the thermal conductivity (3334 kPa) of the same compound?
Its thermal conductivity is 0.07228 ± 0.0034 W/m/K.

And the thermal conductivity (3336 kPa)?
The thermal conductivity was 0.07228 ± 0.0034 W/m/K.

What about the thermal conductivity (3340 kPa) of the same compound?
Its thermal conductivity is 0.07228 ± 0.0034 W/m/K.

And the thermal conductivity (3343 kPa)?
The thermal conductivity was 0.07197 ± 0.0034 W/m/K.

What about the thermal conductivity (3345 kPa) of the same compound?
The thermal conductivity was 0.07087 ± 0.0033 W/m/K.

And the thermal conductivity (3346 kPa)?
The thermal conductivity was 0.07087 ± 0.0033 W/m/K.

And the thermal conductivity (3347 kPa)?
The thermal conductivity was 0.07087 ± 0.0033 W/m/K.

What about the thermal conductivity (3350 kPa) of the same compound?
Its thermal conductivity is 0.07087 ± 0.0033 W/m/K.

And the thermal conductivity (3360 kPa)?
Its thermal conductivity is 0.07087 ± 0.0033 W/m/K.

And the thermal conductivity (3370 kPa)?
Its thermal conductivity is 0.07087 ± 0.0033 W/m/K.

And the thermal conductivity (3380 kPa)?
Its thermal conductivity is 0.07087 ± 0.0033 W/m/K.

And the thermal conductivity (3390 kPa)?
Its thermal conductivity is 0.07087 ± 0.0033 W/m/K.

And the thermal conductivity (3400 kPa)?
Its thermal conductivity is 0.06942 ± 0.0032 W/m/K.

And the thermal conductivity (3420 kPa)?
The thermal conductivity was 0.06942 ± 0.0032 W/m/K.

And the thermal conductivity (3430 kPa)?
Its thermal conductivity is 0.06942 ± 0.0032 W/m/K.

What about the thermal conductivity (3450 kPa) of the same compound?
Its thermal conductivity is 0.06824 ± 0.0032 W/m/K and 0.06843 ± 0.0032 W/m/K.

And the thermal conductivity (3500 kPa)?
The thermal conductivity was 0.06824 ± 0.0032 W/m/K.

What about the thermal conductivity (3600 kPa) of the same compound?
Its thermal conductivity is 0.06824 ± 0.0032 W/m/K.

And the thermal conductivity (3700 kPa)?
Its thermal conductivity is 0.06824 ± 0.0032 W/m/K.

What about the thermal conductivity (3800 kPa) of the same compound?
The thermal conductivity was 0.06824 ± 0.0032 W/m/K.

What about the thermal conductivity (3900 kPa) of the same compound?
The thermal conductivity was 0.06824 ± 0.0032 W/m/K.

What about the thermal conductivity (4000 kPa) of the same compound?
Its thermal conductivity is 0.07056 ± 0.0033 W/m/K.

And the thermal conductivity (4100 kPa)?
Its thermal conductivity is 0.0708 ± 0.0033 W/m/K and 0.07056 ± 0.0033 W/m/K.

And the thermal conductivity (4200 kPa)?
Its thermal conductivity is 0.07086 ± 0.0033 W/m/K.

And the thermal conductivity (4300 kPa)?
Its thermal conductivity is 0.07086 ± 0.0033 W/m/K.

What about the thermal conductivity (4600 kPa) of the same compound?
Its thermal conductivity is 0.07116 ± 0.0033 W/m/K.

And the thermal conductivity (4700 kPa)?
Its thermal conductivity is 0.07125 ± 0.0033 W/m/K.

And the thermal conductivity (4800 kPa)?
Its thermal conductivity is 0.07144 ± 0.0033 W/m/K.

What about the thermal conductivity (4900 kPa) of the same compound?
The thermal conductivity was 0.07165 ± 0.0034 W/m/K.

What about the thermal conductivity (5000 kPa) of the same compound?
Its thermal conductivity is 0.07187 ± 0.0034 W/m/K.

And the thermal conductivity (5100 kPa)?
The thermal conductivity was 0.07209 ± 0.0034 W/m/K.

What about the thermal conductivity (5200 kPa) of the same compound?
The thermal conductivity was 0.07225 ± 0.0034 W/m/K.

What about the thermal conductivity (5300 kPa) of the same compound?
Its thermal conductivity is 0.0725 ± 0.0034 W/m/K.

What about the thermal conductivity (5400 kPa) of the same compound?
Its thermal conductivity is 0.07269 ± 0.0034 W/m/K.

What about the thermal conductivity (5500 kPa) of the same compound?
Its thermal conductivity is 0.07288 ± 0.0034 W/m/K.

And the thermal conductivity (5600 kPa)?
The thermal conductivity was 0.07304 ± 0.0034 W/m/K.

And the thermal conductivity (5700 kPa)?
Its thermal conductivity is 0.07323 ± 0.0034 W/m/K.

And the thermal conductivity (5800 kPa)?
Its thermal conductivity is 0.07339 ± 0.0034 W/m/K.

And the thermal conductivity (5900 kPa)?
Its thermal conductivity is 0.07359 ± 0.0034 W/m/K.

What about the thermal conductivity (6000 kPa) of the same compound?
Its thermal conductivity is 0.07375 ± 0.0034 W/m/K.

And the thermal conductivity (6100 kPa)?
The thermal conductivity was 0.07391 ± 0.0034 W/m/K.

What about the thermal conductivity (6200 kPa) of the same compound?
The thermal conductivity was 0.07408 ± 0.0034 W/m/K.

What about the thermal conductivity (6300 kPa) of the same compound?
Its thermal conductivity is 0.07424 ± 0.0035 W/m/K.

And the thermal conductivity (6400 kPa)?
Its thermal conductivity is 0.07438 ± 0.0035 W/m/K.

And the thermal conductivity (6500 kPa)?
Its thermal conductivity is 0.07454 ± 0.0035 W/m/K.

And the thermal conductivity (6600 kPa)?
Its thermal conductivity is 0.07471 ± 0.0035 W/m/K.

And the thermal conductivity (6700 kPa)?
The thermal conductivity was 0.07488 ± 0.0035 W/m/K.

And the thermal conductivity (6800 kPa)?
The thermal conductivity was 0.07501 ± 0.0035 W/m/K.

And the thermal conductivity (6900 kPa)?
The thermal conductivity was 0.07515 ± 0.0035 W/m/K.

What about the thermal conductivity (7000 kPa) of the same compound?
Its thermal conductivity is 0.07528 ± 0.0035 W/m/K.

What about the thermal conductivity (7100 kPa) of the same compound?
The thermal conductivity was 0.07542 ± 0.0035 W/m/K.

And the thermal conductivity (7150 kPa)?
Its thermal conductivity is 0.07549 ± 0.0035 W/m/K.

And the thermal conductivity (7200 kPa)?
Its thermal conductivity is 0.07556 ± 0.0035 W/m/K.

And the thermal conductivity (7211 kPa)?
Its thermal conductivity is 0.07556 ± 0.0035 W/m/K.

And the thermal conductivity (7292 kPa)?
Its thermal conductivity is 0.07569 ± 0.0035 W/m/K.

And the thermal conductivity (7496 kPa)?
Its thermal conductivity is 0.07597 ± 0.0035 W/m/K.

What about the thermal conductivity (7501 kPa) of the same compound?
The thermal conductivity was 0.07597 ± 0.0035 W/m/K.

And the thermal conductivity (7517 kPa)?
Its thermal conductivity is 0.07597 ± 0.0035 W/m/K.

What about the thermal conductivity (7533 kPa) of the same compound?
The thermal conductivity was 0.07599 ± 0.0035 W/m/K.

And the thermal conductivity (7800 kPa)?
Its thermal conductivity is 0.07638 ± 0.0035 W/m/K.

What about the thermal conductivity (8100 kPa) of the same compound?
Its thermal conductivity is 0.07676 ± 0.0036 W/m/K.

And the thermal conductivity (8200 kPa)?
Its thermal conductivity is 0.07687 ± 0.0036 W/m/K.
